Where a name gives a salt, the structure may show the parent alone. Read-outs that look alike come from different tables or passages of the source.
Key:
[1] = system: TNF-α; test: Rat assay: LPS-challenged rats, serum TNF-α by ELISA; type: in vivo; details: for inhibition in vivo at 10 mg/kg: Table 9, dose 10 mg/kg; for inhibition in vivo at 3 mg/kg: read-out: Rat LPS Assay % Inhibition
Procedure: The efficacy of the novel compounds in blocking the production of TNF also was evaluated using a model based on rats challenged with LPS. Male Harlen Lewis rats [Sprague Dawley Co.] were used in this model. Each rat weighed approximately 300 g and was fasted overnight prior to testing. Compounds administration was typically by oral gavage (although intraperitoneal, subcutaneous and intravenous administration were also used in a few instances) 1 to 24 hours prior to the LPS challenge. Rats were administered 30 μg/kg LPS [salmonella typhosa, Sigma Co.] intravenously via the tail vein. Blood was collected via heart puncture 1 hour after the LPS challenge. Serum samples were stored at −20° C. until quantitative analysis of TNF-α by Enzyme Linked-Immuno-Sorbent Assay (“ELISA”) [Biosource]. Additional details of the assay are set forth in Perretti, M., et al., Br. J. Pharmacol. (1993), 110, 868-874, which is incorporated by reference in this application.
In vivo assessment of the ability of the compounds to inhibit LPS-stimulated TNF release in the rat is shown in the column identified as:
wherein in the dose is milligram per kilogram (mpk) administered by oral gavage and the predose time indicates the number of hours before LPS challenge when the compound is administered.

[2] = system: human TNF; test: TNF inhibition: human whole blood assay; type: cell-based; details: for IC50: Homo sapiens; for inhibition at 5 µM: read-out: Human Whole Blood % Inhib @ conc.
Procedure: Human peripheral blood is obtained in heparinized tubes. A 190 μL aliquot of blood is placed in each well of a 96 well u-bottom plate. […] After one hour of incubation at 37° C., […] of lipopolysaccharide (Salmonella typhosa, Sigma) in phosphate buffered saline is added resulting in a final concentration of […]. After four to five hours of incubation at 37° C., the supernatants are harvested and assayed at 1:10 or 1:20 dilutions for human TNF using ELISA.

[3] = target: T1, human p38 kinase alpha (Homo sapiens, UniProt Q16539); test: p38 kinase in vitro assay, phosphorylation of biotinylated PHAS-I with gamma 32P-ATP; type: biochemical; details: read-out: P38 alpha kinase IC50
T1 construct: The coding region of the human p38a cDNA was obtained by PCR-amplification from RNA isolated from the human monocyte cell line THP.1; GST (N); made in house; host or cells: E. coli DH10B
How it was run: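 Radiometric filter-capture read-out: streptavidin plates trap biotin-PHAS-I labelled by activated (MKK6) human p38α from γ-32P-ATP. Buffer 25 mM HEPES pH 7.5, 10 mM magnesium acetate, 50 μM cold ATP; reactions 1 h or overnight at 30 °C; inhibitors 10-fold dilutions 100 to 0.001 μM, triplicates, 1% DMSO.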

[4] = target: T2, human GST-p38 kinase alpha (Homo sapiens, UniProt Q16539); test: p38 kinase in vitro assay, second format, phosphorylation of EGFRP with 33P-ATP; type: biochemical; details: read-out: p38α Kinase Assay IC50
T2 construct: The coding region of the human p38a cDNA was obtained by PCR-amplification from RNA isolated from the human monocyte cell line THP.1; made in house; host or cells: E. coli DH10B
Procedure: A second assay format was also employed that is based on p38 kinase alpha induced phosphorylation of EGFRP (epidermal growth factor receptor peptide, a 21 mer) in the presence of ^33P-ATP. Compounds were tested in 10 fold serial dilutions over the range of 100 μM to 0.001 μM in 10% DMSO. Each concentration of inhibitor was tested in triplicate. Compounds were evaluated in 50 μl reaction volumes in the presence of 25 mM Hepes pH 7.5, 10 mM magnesium acetate, 4% glycerol, 0.4% bovine serum albumin, 0.4 mM DTT, 50 μM unlabeled ATP, 25 μg EGFRP (200 μM), and 0.05 uCi gamma ^33P-ATP. Reactions were initiated by addition of 0.09 μg of activated, purified human GST-p38 kinase alpha. Activation was carried out using GST-MKK6 (5:1, p38: MKK6) for one hour at 30° C. in the presence of 50 μM ATP. Following incubation for 60 minutes at room temperature, the reaction was stopped by addition of 150 μl of AG 1×8 resin in 900 mM sodium formate buffer, pH 3.0 (1 volume resin to 2 volumes buffer). The mixture was mixed three times with pipetting and the resin was allowed to settle. A total of 50 μl of clarified solution head volume was transferred from the reaction wells to Microlite-2 plates. 150 μl of Microscint 40 was then added to each well of the Microlite plate, and the plate was sealed, mixed, and counted.

[5] = Rattus norvegicus, po, Table 8, dose 20.0 mg/kg
[6] = Rattus norvegicus, po, Table 9, dose 20 mg/kg
[7] = Table 9, human whole blood, LPS, read-out: TNF Inhibition-Human Whole Blood Assay
[8] = TNF production, LPS-stimulated human whole blood, read-out: Human Whole Blood IC50
[9] = Rattus norvegicus, po, 5 mpk oral gavage, 4 h before LPS challenge, read-out: Rat LPS Model % Inhibition @ dose @ predose time
[10] = TNF production, LPS-stimulated human whole blood

T1 sequence (Q16539 whole entry): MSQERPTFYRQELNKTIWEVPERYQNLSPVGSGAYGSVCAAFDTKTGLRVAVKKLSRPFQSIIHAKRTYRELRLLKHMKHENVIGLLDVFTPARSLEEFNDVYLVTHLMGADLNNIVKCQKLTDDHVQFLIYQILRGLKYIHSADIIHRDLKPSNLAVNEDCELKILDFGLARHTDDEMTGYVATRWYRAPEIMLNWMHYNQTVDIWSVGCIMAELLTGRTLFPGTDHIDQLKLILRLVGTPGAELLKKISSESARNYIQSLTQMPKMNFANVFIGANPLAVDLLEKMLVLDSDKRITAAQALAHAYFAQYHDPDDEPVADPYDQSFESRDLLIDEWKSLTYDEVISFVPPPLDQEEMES
T2 sequence (Q16539 whole entry): as above

CC1CN(c2[nH]nc(-c3ccc(Cl)cc3)c2-c2ccncc2)CC(C)N1 (stereo not drawn) [Example A-342, 1-[5-(4-chlorophenyl)-4-(4-pyridinyl)-1H-pyrazol-3-yl]-3,5-dimethylpiperazine]
inhibition in vivo at 20 mg/kg [1, 5]: 98% | IC50 ([2]; Table 8, human whole blood, LPS, read-out: TNF Inhibition-Human Whole Blood Assay): 0.31 µM

O[C@H]1CC[C@H](Nc2cc(-c3c[nH]nc3-c3ccc(F)cc3)ccn2)CC1 [Example A-386, trans-4-[[4-[3-(4-fluorophenyl)-1-H-pyrazol-4-yl]-2-pyridinyl]amino]cyclohexanol]
inhibition in vivo at 20 mg/kg [1, 6]: 91% | IC50 [2, 7]: 0.16 µM

CC(C)N1CCC(c2[nH]nc(-c3ccc(C(F)(F)F)cc3)c2-c2ccncc2)CC1 [Example C-85]
IC50 [2, 8]: > 25 µM | IC50 [3]: 570 nM

CN1CCC(c2[nH]nc(-c3cccc(C(F)(F)F)c3)c2-c2ccncc2)CC1 [Example C-87]
IC50 [2, 8]: 0.34 µM | IC50 [3]: 27 nM

CC(C)(N)C(=O)NCc1[nH]nc(-c2ccc(Cl)cc2)c1-c1ccncc1 [Example C-121]
inhibition in vivo at 5 mg/kg ([1]; Rattus norvegicus, po, read-out: Rat LPS Model % Inhibition @ dose @ predose time): 39% | IC50 ([2]; read-out: Human Whole Blood IC50, μM): 15.3 µM

CC1CN(c2[nH]nc(-c3ccc(Cl)cc3)c2-c2ccncc2)CCN1 (stereo not drawn) [Example A-343, 1-[5-(4-chlorophenyl)-4-(4-pyridinyl)-1H-pyrazol-3-yl]-3-methylpiperazine]
IC50 ([4]; Table 8, 10% DMSO): 16 nM | inhibition in vivo at 20 mg/kg [1, 5]: 96%

OC1CCN(c2[nH]nc(-c3ccc(F)cc3)c2-c2ccncc2)CC1 [Example A-379, 1-[5-(4-fluorophenyl)-4-(4-pyridinyl)-1H-pyrazol-3-yl]-4-piperidinol]
IC50 ([4]; Table 9, 10% DMSO): 190 nM | inhibition in vivo at 10 mg/kg ([1]; Rattus norvegicus, po): 61%

CN(C)[C@H]1CC[C@@H](c2[nH]nc(-c3ccc(C(F)(F)F)cc3)c2-c2ccncc2)CC1 [Example C-102, 5-cis-(4-N,N-DIMETHYLAMINOCYCLOHEXYL)-4-(4-PYRIDYL)-3-[4-(TRIFLUOROMETHYL)PHENYL]PYRAZOLE]
inhibition in vivo at 5 mg/kg [1, 9]: 72% | IC50 [2, 8]: 7.56 µM

O=C(CO)N1CCC(c2[nH]nc(-c3ccc(Cl)cc3)c2-c2ccncn2)CC1 [Example D-2, N-(2-Hydroxyacetyl)-5-(4-piperidyl)-4-(4-pyrimidyl)-3-(4-chlorophenyl)pyrazole hydrochloride]
ratLPS/% Inh @1.0 (mg/kg) ([1]; 1.0 mg/kg oral gavage, 4 hours before LPS challenge, hydrochloride): 89.0% | inhibition in vivo at 5 mg/kg ([1]; Rattus norvegicus, po, 5.0 mg/kg oral gavage, 4 hours before LPS challenge, read-out: ratLPS/% Inh @5.0 (mg/kg)): 95% | IC50 ([2]; TNF production, LPS-stimulated human whole blood, read-out: HWB IC50): 1.79 µM

CC(=O)N[C@H]1CC[C@@H](c2[nH]nc(-c3ccc(Cl)cc3)c2-c2ccncc2)CC1 [Example C-95, 5- cis-[4-N-(ACETYL)AMINOCYCLOHEXYL]-4-(4-PYRIDYL)-3-(4-CHLOROPHENYL)PYRAZOLE]
inhibition in vivo at 5 mg/kg [1, 9]: 32% | IC50 [2, 8]: 3.91 µM

C=CCN1CCC(c2[nH]nc(-c3ccc(Cl)cc3)c2-c2ccncc2)CC1 [Example C-80]
inhibition at 5 µM [2, 10]: 51% | IC50 [3]: 8 nM

N[C@H]1CC[C@@H](c2[nH]nc(-c3ccc(C(F)(F)F)cc3)c2-c2ccncc2)CC1 [Example C-101, 5-cis-(4-AMINOCYCLOHEXYL)-4-(4-PYRIDYL)-3-[4-(TRIFLUOROMETHYL)PHENYL]PYRAZOLE]
inhibition in vivo at 5 mg/kg [1, 9]: 52% | IC50 [2, 8]: 3.71 µM

O=C(O)CCC(=O)N1CCN(c2n[nH]c(-c3ccc(Cl)cc3)c2-c2ccncc2)CC1 [A-321 (dihydrate), 4-[5-(4-chlorophenyl)-4-(4-pyridinyl)-1H-pyrazol-3-yl]-γ-oxo-1-piperazinebutanoic acid, dihydrate]
IC50 ([2]; read-out: TNF Inhibition-Human Whole Blood Assay): > 25 µM

O=C1CCN(c2n[nH]c(-c3ccc(F)cc3)c2-c2ccncc2)CC1 [Example A-378, 1-[5-(4-fluorophenyl)-4-(4-pyridinyl)-1H-pyrazol-3-yl]-4-piperidinone]
IC50 ([4]; Table 9, 10% DMSO): 6200 nM | inhibition in vivo at 10 mg/kg ([1]; Rattus norvegicus, po): 73%

CCN1CCC(Nc2cc(-c3c[nH]nc3-c3ccc(F)cc3)ccn2)CC1 [Example A-352, N-(1-ethyl-4-piperidinyl)-4-[3-(4-fluorophenyl)-1H-pyrazol-4-yl]-2-pyridinamine]
inhibition in vivo at 20 mg/kg [1, 6]: 36% | IC50 [2, 7]: 9.8 µM

CCOC(=O)N1CCC(Nc2n[nH]c(-c3ccc(Cl)cc3)c2-c2ccncc2)CC1 [Example A-331, ethyl 4-[[5-(4-chlorophenyl)-4-(4-pyridinyl)-1H-pyrazol-3-yl]amino]-1-piperidinecarboxylate]
IC50 ([4]; Table 8, 10% DMSO): 640 nM | inhibition in vivo at 20 mg/kg [1, 5]: 13%

Clc1ccc(-c2n[nH]c(C3CCN(Cc4nccs4)CC3)c2-c2ccncc2)cc1 [Example C-82]
IC50 [2, 8]: 7.31 µM | IC50 [3]: 150 nM

OCCCCc1[nH]nc(-c2ccc(F)cc2)c1-c1ccncc1 [Example C-132, 5-[4-(1-HYDROXY)BUTYL]-4-(4-PYRIDYL)-3-(4-FLUOROPHENYL)PYRAZOLE]
inhibition at 5 µM [2, 10]: 44% | IC50 [3]: 86 nM

Fc1ccc(-c2n[nH]c(C3CCCNC3)c2-c2ccncc2)cc1 (stereo not drawn) [Example C-90, 5-(3-piperidyl)-4-(4-pyridyl)-3-(4-fluorophenyl)pyrazole]
IC50 [2, 8]: 0.48 µM | IC50 [3]: 37 nM

Fc1ccc(-c2n[nH]cc2-c2ccnc(NCCN3CCCCC3)c2)cc1 [Example A-375, 4-[3-(4-fluorophenyl)-1H-pyrazol-4-yl]-N-[2-(1-piperidinyl)ethyl]-2-pyridinamine]
IC50 ([4]; Table 9, 10% DMSO): 2300 nM | inhibition in vivo at 20 mg/kg [1, 6]: 43%

Fc1ccc(-c2n[nH]c([C@@H]3CCCNC3)c2-c2ccncc2)cc1 [Example C-127]
IC50 [2, 8]: 0.27 µM | IC50 [3]: 38 nM

Fc1ccc(-c2n[nH]c([C@H]3CCCN3)c2-c2ccncc2)cc1 [Example C-125, (R)-5-(2-PYROLIDINYL)-4-(4-PYRIDYL)-3-(4-FLUOROPHENYL)PYRAZOLE]
IC50 [2, 8]: > 25 µM | IC50 [3]: 7220 nM

C#CCNc1nccc(-c2cn[nH]c2-c2ccc(F)cc2)n1 [Example A-324, 4-[3-(4-fluorophenyl)-1H-pyazol-4-yl]-N-2-propynyl-2-pyrimidinamine]
IC50 ([4]; Table 8, 10% DMSO): 80 nM | inhibition in vivo at 3 mg/kg ([1]; Rattus norvegicus, po, Table 8, dose 3.0 mg/kg): 44%

Fc1ccc(-c2n[nH]c(N3CCC4(CC3)OCCO4)c2-c2ccncc2)cc1 [Example A-380, 8-[5-(4-fluorophenyl)-4-(4-pyridinyl)-1H-pyrazol-3-yl]-1,4-dioxa-8-azaspiro[4.5]decane]
IC50 ([4]; Table 9, 10% DMSO): 850 nM | inhibition in vivo at 3 mg/kg ([1]; Rattus norvegicus, po, Table 9, dose 3 mg/kg): 33% | inhibition in vivo at 10 mg/kg ([1]; Rattus norvegicus, po): 62% | inhibition in vivo at 30 mg/kg ([1]; Rattus norvegicus, po, Table 9, dose 30 mg/kg): 85%

C#CCN1CCC(c2[nH]nc(-c3ccc(Cl)cc3)c2-c2ccncc2)CC1 [Example C-81]
inhibition at 5 µM [2, 10]: 40% | IC50 [3]: 37 nM

Fc1ccc(-c2n[nH]c([C@@H]3CCCN3)c2-c2ccncc2)cc1 [Example C-123, (S)-5-(2-PYROLIDINYL)-74-(4-PYRIDYL)-3-(4-FLUOROPHENYL)PYRAZOLE]
IC50 [2, 8]: > 25 µM | IC50 [3]: 670 nM
